{"source": "ChEMBL document CHEMBL6074685", "about": "“Design, synthesis and biological evaluation of novel diaryl-substituted fused nitrogen heterocycles as tubulin polymerization inhibitors to overcome multidrug resistance in vitro and in vivo” (Eur J Med Chem, 2025)", "key": {"[1]": {"test": "Toxicity in BALB/c mouse implanted with human A549/T cell assessed as lymphocyte count at 15 mg/kg, ip administered every 2 days and measured after 2 weeks (reference value: […])", "format": "organism-based", "conditions": "in vivo, 336 h"}, "[2]": {"test": "Toxicity in BALB/c mouse implanted with human A549/T cell assessed as MCHC level at 30 mg/kg, ip administered every 2 days and measured after 2 weeks (reference value: 570 g/L)", "format": "organism-based", "conditions": "in vivo, 336 h"}, "A549/TR [3]": {"tested_on": "A549/TR", "test": "Antitumor activity against human A549/T cell xenografted in BALB/c mouse assessed as reduction in tumor growth at 15 mg/kg, ip administered every 2 days", "format": "functional, organism-based", "conditions": "time 2.0 day"}, "[4]": {"test": "Toxicity in BALB/c mouse implanted with human A549/T cell assessed as WBC count at 30 mg/kg, ip administered every 2 days and measured after 2 weeks (reference value: 1.3 10^9/L)", "format": "organism-based", "conditions": "in vivo, 336 h"}, "[5]": {"test": "Metabolic stability in human liver microsome assessed as parent compound remaining measured upto 50 mins by LC-MS/MS analysis", "format": "ADME", "conditions": "microsomes"}, "A549/TR [6]": {"tested_on": "A549/TR", "test": "Inhibition of colony formation in human A549/T cell incubated for 48 hrs by crystal violet staining based analysis", "format": "functional", "conditions": "dose 0.1-0.5 µM"}, "[7]": {"test": "Toxicity in BALB/c mouse implanted with human A549/T cell assessed as lymphocyte count at 15 mg/kg, ip administered every 2 days and measured after 2 weeks (reference value: 56%)", "format": "organism-based", "conditions": "in vivo, 336 h"}, "[8]": {"test": "Metabolic stability in mouse liver microsome assessed as half life measured upto 50 mins by LC-MS/MS analysis", "format": "ADME", "conditions": "liver microsomes"}, "[9]": {"test": "Toxicity in BALB/c mouse implanted with human A549/T cell assessed as platelet count at 30 mg/kg, ip administered every 2 days and measured after 2 weeks (reference value: 539 […])", "format": "organism-based", "conditions": "in vivo, 336 h"}, "[10]": {"test": "Toxicity in BALB/c mouse implanted with human A549/T cell assessed as platelet distribution width at 15 mg/kg, ip administered every 2 days and measured after 2 weeks (reference value: 15.3 fL)", "format": "organism-based", "conditions": "in vivo, 336 h"}, "[11]": {"test": "Toxicity in BALB/c mouse implanted with human A549/T cell assessed as MCH level at 15 mg/kg, ip administered every 2 days and measured after 2 weeks (reference value: 29.2 pg)", "format": "organism-based", "conditions": "in vivo, 336 h"}, "[12]": {"test": "Toxicity in BALB/c mouse implanted with human A549/T cell assessed as mean platelet volume at 30 mg/kg, ip administered every 2 days and measured after 2 weeks (reference value: 10.1 fL)", "format": "organism-based", "conditions": "in vivo, 336 h"}, "[13]": {"test": "Metabolic stability in mouse liver microsome assessed as intrinsic clearance measured upto 50 mins by LC-MS/MS analysis", "format": "ADME", "conditions": "liver microsomes, read-out: CLH"}, "[14]": {"test": "Toxicity in BALB/c mouse implanted with human A549/T cell assessed as heart damage at 15 to 30 mg/kg, ip administered every 2 days by H and E staining based analysis", "format": "organism-based", "conditions": "in vivo, 48 h, dose 15-30 mg/kg, time 2 day"}, "[15]": {"test": "Toxicity in BALB/c mouse implanted with human A549/T cell assessed as platelet distribution width at 30 mg/kg, ip administered every 2 days and measured after 2 weeks (reference value: 15.3 fL)", "format": "organism-based", "conditions": "in vivo, 336 h"}, "A549 [16]": {"tested_on": "A549", "test": "Induction of apoptosis in human A549 cells at 25 nM incubated for 48 hrs by V-FITC/PI staining based flow cytometry analysis relative to control", "format": "functional"}, "[17]": {"test": "Toxicity in BALB/c mouse implanted with human A549/T cell assessed as monocyte count at 30 mg/kg, ip administered every 2 days and measured after 2 weeks (reference value: 30.6 %)", "format": "organism-based", "conditions": "in vivo, 336 h"}, "[18]": {"test": "Toxicity in BALB/c mouse implanted with human A549/T cell assessed as kidney damage at 15 to 30 mg/kg, ip administered every 2 days by H and E staining based analysis", "format": "organism-based", "conditions": "in vivo, 48 h, dose 15-30 mg/kg, time 2 day"}, "A549 [19]": {"tested_on": "A549", "test": "Antiproliferative activity against human A549 cells assessed as cell growth inhibition incubated for 48 hrs by MTT assay", "conditions": "A549, 48 h"}, "[20]": {"test": "Cytotoxicity against human MCF-10A cells assessed as inhibition of cell growth at 100 nM incubated for 48 hrs by MTT assay relative to control", "format": "toxicity, cell-based"}, "[21]": {"test": "Metabolic stability in human liver microsome assessed as half life measured upto 50 mins by LC-MS/MS analysis", "format": "ADME", "conditions": "liver microsomes"}, "[22]": {"test": "Toxicity in BALB/c mouse implanted with human A549/T cell assessed as liver damage at 15 to 30 mg/kg, ip administered every 2 days by H and E staining based analysis", "format": "organism-based", "conditions": "in vivo, 48 h, dose 15-30 mg/kg, time 2 day"}, "[23]": {"test": "Toxicity in BALB/c mouse implanted with human A549/T cell assessed as WBC count at 15 mg/kg, ip administered every 2 days and measured after 2 weeks (reference value: 1.3 10^9/L)", "format": "organism-based", "conditions": "in vivo, 336 h"}, "Tubulin (Homo sapiens)": {"target": "Tubulin (Homo sapiens) (UniProt P68371+Q9H4B7+P0DPH7+P68366+Q13509+Q71U36+P04350+Q3ZCM7+P07437+P68363+Q9BQE3+Q6PEY2+Q13885+Q9BVA1+Q9BUF5)", "test": "Disruption of microtubule network in human A549/T cell at 100 to 200 nM incubated for 24 hrs by immunofluorescence staining based confocal microscopy analysis", "conditions": "dose 100-200 nM"}, "[24]": {"test": "Toxicity in BALB/c mouse implanted with human A549/T cell assessed as lymphocyte count at 30 mg/kg, ip administered every 2 days and measured after 2 weeks (reference value: 56%)", "format": "organism-based", "conditions": "in vivo, 336 h"}, "[25]": {"test": "Toxicity in BALB/c mouse implanted with human A549/T cell assessed as change in body weight at 15 mg/kg, ip administered every 2 days", "format": "organism-based", "conditions": "in vivo, 48 h, time 2 day"}, "A549/TR [26]": {"tested_on": "A549/TR", "test": "Induction of apoptosis in human A549/T cell at 62.5 nM incubated for 48 hrs by V-FITC/PI staining based flow cytometry analysis relative to control", "format": "functional"}, "[27]": {"test": "Toxicity in BALB/c mouse implanted with human A549/T cell assessed as MCHC level at 15 mg/kg, ip administered every 2 days and measured after 2 weeks (reference value: 570 g/L)", "format": "organism-based", "conditions": "in vivo, 336 h"}, "[28]": {"test": "Toxicity in BALB/c mouse implanted with human A549/T cell assessed as Plate-letocrit at 15 mg/kg, ip administered every 2 days and measured after 2 weeks (reference value: 0.549%)", "format": "organism-based", "conditions": "in vivo, 336 h"}, "A549/TR [29]": {"tested_on": "A549/TR", "test": "Induction of apoptosis in human A549/T cell at 125 nM incubated for 48 hrs by V-FITC/PI staining based flow cytometry analysis relative to control", "format": "functional"}}, "note": "Active and inactive are the calls of the source. The calls are words filed in the database; no cut-off is given here.", "data": [{"smiles": "COc1ccc(-c2cc(-c3ccc(OC)c(OC)c3OC)c3nc[nH]c3c2)cc1N", "values": [{"measurement": "Activity", "setting": "[1]", "result": "1.42 10^9/L"}, {"measurement": "Activity", "setting": "[2]", "result": 624, "unit": "g/L"}, {"measurement": "Activity", "setting": "A549/TR [3]", "result": "Active"}, {"measurement": "Activity", "setting": "[4]", "result": "2.4 10^9/L"}, {"measurement": "Stability", "setting": "[5]", "result": "Stable"}, {"measurement": "inhibition", "setting": "A549/TR [6]", "result": "Dose-dependent-effect"}, {"measurement": "Activity", "setting": "[7]", "result": 50.7, "unit": "%"}, {"measurement": "half-life", "setting": "[8]", "result": 1.05, "unit": "h"}, {"measurement": "Activity", "setting": "[9]", "result": "415 10^9/L"}, {"measurement": "Activity", "setting": "[10]", "result": 17.9, "unit": "fL"}, {"measurement": "Activity", "setting": "[11]", "result": 28.9, "unit": "pg"}, {"measurement": "Activity", "setting": "[12]", "result": 10.2, "unit": "fL"}, {"measurement": "CLint scaled", "setting": "[13]", "result": 87, "unit": "mL/min/kg"}, {"measurement": "Activity", "setting": "[14]", "result": "Non-toxic"}, {"measurement": "Activity", "setting": "[15]", "result": 16.9, "unit": "fL"}, {"measurement": "Activity", "setting": "A549 [16]", "result": 15.47, "unit": "%"}, {"measurement": "Activity", "setting": "[17]", "result": 23.4, "unit": "%"}, {"measurement": "Activity", "setting": "[18]", "result": "Non-toxic"}, {"measurement": "IC50", "setting": "A549 [19]", "result": 23, "unit": "nM"}, {"measurement": "inhibition at 48 h, 0.1 µM", "setting": "[20]", "result": 47, "unit": "%"}, {"measurement": "half-life", "setting": "[21]", "result": 1.25, "unit": "h"}, {"measurement": "Activity", "setting": "[22]", "result": "Non-toxic"}, {"measurement": "Activity", "setting": "[23]", "result": "2.8 10^9/L"}, {"measurement": "Activity", "setting": "Tubulin (Homo sapiens)", "result": "Active"}, {"measurement": "Activity", "setting": "[24]", "result": 55.2, "unit": "%"}, {"measurement": "Activity", "setting": "[25]", "result": "Non-toxic"}, {"measurement": "Activity", "setting": "A549/TR [26]", "result": 22.22, "unit": "%"}, {"measurement": "Activity", "setting": "[27]", "result": 589, "unit": "g/L"}, {"measurement": "Activity", "setting": "[28]", "result": 0.531, "unit": "%"}, {"measurement": "Activity", "setting": "A549/TR [29]", "result": 54.01, "unit": "%"}]}]}
